This test has as its system Fusarium pseudograminearum.
[1] abbreviates: average of 5 trials, compared to untreated T1.
[2] abbreviates: average of 5 trials, compared to untreated T1, listed as T2.
The mark [3] stands for this setting: average of 5 trials, untreated T1 = 100.00.

Each structure is given as a SMILES string. “Also recorded” adds a separate entry of the source. Like-named read-outs stand apart in the source and are kept apart here.

The values below come from patent publication US12446582B2 (priority 2018, dated 2025).

Method: 5 wheat trial locations were selected across the main wheat growing areas of Australia. All five sites have a history of crown rot and high stubble load coming out of susceptible rotation crop. Soil samples were taken to confirm the pathogen pressure. The seeds were treated with a Rotostat Seed Treater with 800 ml slurry volume per 100 kg of seeds. Planting for the trials took place between 2 June and 14 June using a 6 to 8 row planter. The number of plants was counted 35-65 days after sowing on 2×5 m row. The number of wheat plants with white heads per plot was assessed at full ripe and recorded as % compared to the untreated plants which were taken as reference. Yield grain data was taken at the end of the season.

For `O=C(NC1CCC1c1ccc(Cl)cc1Cl)c1cccnc1C(F)(F)F` (stereo not drawn) [Compound 1], under setting [1], the “Final emergence counts % increase compared to T1” value is on record as 7.52%, the “Plot yields % increase compared to T1” value is 26% and the “White heads % reduction compared to T1” value came out at 34%. Besides, under setting [2], the “Plot yields % increase compared to T1” value was 26.32% and the “White heads % reduction compared to T1” value is recorded as 34.20%. In addition, the “White heads Average” value (average of 5 trials, % compared to untreated T1 = 100.00) was 66.80%. Moreover, under setting [3], the “Final emergence counts Average” value worked out at 107.52 and the “Plot yields Average” value was found to be 126.32. Also, the “White heads AR0T020” value (trial AR0T020, Merredin, WA, variety Cobra, seed treatment, % compared to untreated T1 = 100.00, at full ripe) is 32.86%. Further, the “Plot yields AR0T020” value (trial AR0T020, Merredin, WA, variety Cobra, seed treatment, full plot harvest, untreated T1 = 100.00) is on record as 127.83. Also, where the note is “trial AR0T020, Merredin, WA, variety Cobra, seed treatment, untreated T1 = 100.00”, the “Final emergence counts AR0T020” value turned out to be 101.87. Besides, the “White heads AR0T021” value (trial AR0T021, Tammin, WA, variety Cobra, seed treatment, % compared to untreated T1 = 100.00, at full ripe) amounted to 28.45%. Besides, the “Plot yields AR0T021” value (trial AR0T021, Tammin, WA, variety Cobra, seed treatment, full plot harvest, untreated T1 = 100.00) was found to be 107.62. Further, the “Final emergence counts AR0T021” value (trial AR0T021, Tammin, WA, variety Cobra, seed treatment, untreated T1 = 100.00) is recorded as 118.36. Further, the “White heads DL0T013” value (trial DL0T013, Bunnaloo, NSW, variety Aurora (Durum), seed treatment, % compared to untreated T1 = 100.00, at full ripe) was 92.59%. For the same compound, under “trial DL0T013, Bunnaloo, NSW, variety Aurora (Durum), seed treatment, full plot harvest, untreated T1 = 100.00”, the “Plot yields DL0T013” value was 116.90. Besides, the “Final emergence counts DL0T013” value (trial DL0T013, Bunnaloo, NSW, variety Aurora (Durum), seed treatment, untreated T1 = 100.00) is given as 100.80. Also, where the note is “trial GS0T007, Redhill, SA, variety Saintly (Durum), seed treatment, % compared to untreated T1 = 100.00, at full ripe”, the “White heads GS0T007” value is listed as 74.52%. Besides, for the setting “trial GS0T007, Redhill, SA, variety Saintly (Durum), seed treatment, full plot harvest, untreated T1 = 100.00”, the “Plot yields GS0T007” value was 162.86. The “Final emergence counts GS0T007” value (trial GS0T007, Redhill, SA, variety Saintly (Durum), seed treatment, untreated T1 = 100.00) was 113.09. Besides, where the note is “trial N10T669, Bellata, NSW, variety Lillaroi (Durum), seed treatment, % compared to untreated T1 = 100.00, at full ripe”, the “White heads N10T669” value worked out at 105.57%. The “Plot yields N10T669” value (trial N10T669, Bellata, NSW, variety Lillaroi (Durum), seed treatment, full plot harvest, untreated T1 = 100.00) is 116.41. The “Final emergence counts N10T669” value (trial N10T669, Bellata, NSW, variety Lillaroi (Durum), seed treatment, untreated T1 = 100.00) is 103.48. Further, the “yield increase compared to other commercial treatments (in words)” value (wheat seed treatment, compared to commercial treatments T3-T5) is listed as “more than double; also recorded: more than twice as much”.
